SMILES strings stand for the structures. Several values for one entry are separate records, joined by “and”; a condition that tells them apart may be missing. Equal values may be shown once. Results filed as inconclusive are left out. Activity calls are given as the source filed them.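 Rule for the calls: active = viability below 70% at one or more tested concentrations in every replicate; inactive = viability above 70% at all doses, or replicates disagree.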

Tested on in one assay: not listed separately
The assay is described as follows: host cell viability loss, Vero E6 – synthesized analogs, extended characterization 1, cytotoxicity control for West Nile virus antiviral project, SAR follow-up (AID 588374). As to conditions: Vero E6 viability, CellTiter-Glo luminescence, 72 h; at 50 µM (top of the series). (In general: Cellular ATP, detected with luciferase, serves as a proxy for viable cell number.)
In the case of `O=C(CSc1nc2ccccc2c(=O)n1-c1ccccc1)Nc1nc(-c2ccccc2)cs1`, the viability is 77.7% (inactive).

In the case of `O=C(CSc1nc2ccccc2c(=O)n1-c1cc(F)c(F)c(F)c1)Nc1ccc2c(c1)CCC2`, the viability is 76.3% (inactive).

As for `Cn1c(NC(=O)CSc2nc3ccccc3c(=O)n2-c2ccc(Cl)c(Cl)c2)nc2ccccc21`, the viability was 74.2% (inactive).

Turning to `O=C(CSc1nc2cccc(F)c2c(=O)n1-c1ccccc1)Nc1ccc2ncsc2c1`, the viability is 86.2% (inactive).

For the compound `O=C(CSc1nc2ccccc2c(=O)n1-c1ccc(F)c(F)c1)Nc1nccs1`, the viability is 74.1% (inactive).

Regarding `O=C(CSc1nc2ccccc2c(=O)n1-c1ccc(Cl)c(Cl)c1)NC1CCc2ccccc21` (configuration not stated), the viability is 73.8% (inactive).

For the compound `O=C(CSc1nc2ccccc2c(=O)n1-c1ccc(Cl)c(Cl)c1)Nc1cccc2c1CCC2`, the viability was 76.2% (inactive).

The same assay, now with this note: Vero E6 viability, CellTiter-Glo luminescence, 72 h; at 100 µM (top of the series).
Consider `O=C(CSc1nc2ccccc2c(=O)n1-c1cc(Cl)cc(Cl)c1)Nc1cccc2ccccc12`, for which the viability is 83.8% (inactive).

In the case of `O=C(CCCSc1nc2ccccc2c(=O)n1-c1ccccc1)Nc1ccc2c(c1)CCC2`, the viability is 85.5% (inactive).

As to `O=C(CCCSc1nc2cccc(F)c2c(=O)n1-c1ccc(F)c(F)c1)Nc1ccc2c(c1)CCC2`, the viability is 78% (inactive).

Take `O=C(CSc1nc2ccccc2c(=O)n1-c1ccccc1)Nc1nccs1`: the viability is 96.3% (inactive).

`O=C(CCCSc1nc2cccc(F)c2c(=O)n1-c1ccc(Cl)c(F)c1)Nc1ccc2c(c1)CCC2`: the viability was 82.9% (inactive).

As to `Cc1nc2cc(NC(=O)CSc3nc4ccccc4c(=O)n3-c3ccccc3)ccc2s1`, the viability is 75.1% (inactive).

For `O=C(CSc1nc2ccccc2c(=O)n1-c1ccc(Cl)c(Cl)c1)Nc1ccc2scnc2c1`, the viability is 75.5% (inactive).

In the case of `O=C(CCSc1nc2ccccc2c(=O)n1-c1ccc(F)c(Cl)c1)Nc1ccc2c(c1)CCC2`, the viability is 77.6% (inactive).

As for `O=C(CCCCSc1nc2cccc(F)c2c(=O)n1-c1ccc(Cl)c(F)c1)Nc1ccc2c(c1)CCC2`, the viability was 81.9% (inactive).

`O=C(CCCSc1nc2ccccc2c(=O)n1-c1ccc(Cl)c(Cl)c1)Nc1ccc2c(c1)CCC2`: the viability was 80.6% (inactive).

In the case of `O=C(CSc1nc2ccccc2c(=O)n1-c1ccccc1)NC1CCc2ccccc21` (configuration not stated), the viability was 75.5% (inactive).

With `O=C(CSc1nc2ccccc2c(=O)n1-c1ccc(Cl)c(Cl)c1)N1CCCCCC1`, the viability is 74.5% (inactive).

As to `O=C(CSc1nc2ccccc2c(=O)n1-c1ccc(Cl)c(Cl)c1)Nc1ccc2c(c1)OCO2`, the viability was 74.2% (inactive).

In the case of `O=C(CCCSc1nc2cccc(F)c2c(=O)n1-c1ccc(F)c(Br)c1)Nc1ccc2c(c1)CCC2`, the viability was 81.7% (inactive).

Consider `O=C(CSc1nc2ccccc2c(=O)n1-c1ccccc1)Nc1ccc2c(c1)CCC2`, for which the viability is 76.9% (inactive) and 77% (inactive).

Regarding `O=C(CSc1nc2ccccc2c(=O)n1-c1ccc(Cl)c(Cl)c1)Nc1ccc2c(c1)CCC2`, the viability is 70.3% (inactive).

Consider `O=C(COc1nc2ccccc2c(=O)n1-c1ccccc1)Nc1ccc2c(c1)CCC2`, for which the viability was 71.6% (inactive).

In the case of `O=C(CCCCSc1nc2ccccc2c(=O)n1-c1cc(F)c(F)c(F)c1)Nc1ccc2c(c1)CCC2`, the viability was 70.2% (inactive).

As to `O=C(CSc1nc2ccccc2c(=O)n1-c1ccccc1)Nc1ccc2ncsc2c1`, the viability is 88.3% (inactive).

On to `O=C(CSc1nc2ccccc2c(=O)n1-c1ccccc1)NC1Cc2ccccc2C1`, for which the viability was 75.3% (inactive).

On to `O=C(CSc1nc2ccccc2c(=O)n1-c1ccc(F)c(Cl)c1)Nc1cccc2ccccc12`, for which the viability is 75.5% (inactive).

Consider `O=C(CSc1nc2ccccc2c(=O)n1-c1ccc(F)c(F)c1)NC1CCCc2ccccc21` (configuration not stated), for which the viability is 76.2% (inactive).

As to `O=C(CSc1nc2cccc(F)c2c(=O)n1-c1ccccc1)Nc1ccc2c(c1)OCO2`, the viability is 76.3% (inactive).

The subject of another assay is Vero E6 viability, CellTiter-Glo luminescence, 72 h. Described as above.
Details: not given
On to `O=C(CSc1nc2ccccc2c(=O)n1-c1cc(Cl)cc(Cl)c1)Nc1nccs1`, for which the CC50 was 18 µM.

`O=C(CSc1nc2ccccc2c(=O)n1-c1ccccc1)Nc1nc2cc(Cl)ccc2o1`: the CC50 was 31.7 µM.

In the case of `O=C(CCCCSc1nc2ccccc2c(=O)n1-c1ccccc1)Nc1ccc2c(c1)CCC2`, the CC50 is 50 µM.

Turning to `O=C(CSc1nc2ccccc2c(=O)n1-c1ccc(Cl)c(Cl)c1)Nc1nccs1`, the CC50 was 14.9 µM.

Consider `O=C(CSc1nc2ccccc2c(=O)n1-c1ccccc1)Nc1ccc2c(c1)OCO2`, for which the CC50 was 57.3 µM.

Consider `O=C(CCCCSc1nc2ccccc2c(=O)n1-c1ccc(F)c(Cl)c1)Nc1ccc2c(c1)CCC2`, for which the CC50 was 93.9 µM.

Turning to `O=C(CSc1nc2ccccc2c(=O)n1-c1ccc(Cl)c(Cl)c1)Nc1ncc([N+](=O)[O-])s1`, the CC50 was 21.7 µM.

For the compound `O=C(CSc1nc2ccccc2c(=O)n1-c1ccccc1)Nc1nc2ccc([N+](=O)[O-])cc2s1`, the CC50 is 40.5 µM.

As to `Cc1cnc(NC(=O)CSc2nc3ccccc3c(=O)n2-c2ccc(Cl)c(Cl)c2)s1`, the CC50 is 28.8 µM.

With `O=C(CSc1nc2ccccc2c(=O)n1-c1ccc(Cl)c(Cl)c1)Nc1nc2cc(Cl)ccc2o1`, the CC50 is 18.8 µM.

Take `O=C(CSc1nc2ccccc2c(=O)n1-c1cc(Cl)cc(Cl)c1)Nc1cccc2c1CCC2`: the CC50 is 17.5 µM.

Regarding `O=C(CCSc1nc2cccc(F)c2c(=O)n1-c1ccccc1)Nc1ccc2c(c1)CCC2`, the CC50 was 52.6 µM.

Turning to `O=C(CSc1nc2ccccc2c(=O)n1-c1cc(F)c(F)c(F)c1)Nc1ccc2c(c1)OCO2`, the CC50 was 32.8 µM.

With `Cn1c(NC(=O)CSc2nc3ccccc3c(=O)n2-c2ccccc2)nc2ccccc21`, the CC50 is 16.4 µM.

Take `Cc1nc2cc(NC(=O)CSc3nc4ccccc4c(=O)n3-c3ccc(Cl)c(Cl)c3)ccc2s1`: the CC50 was 18 µM.

Take `O=C(CSc1nc2ccccc2c(=O)n1-c1ccccc1)Nc1cccc2c1CCC2`: the CC50 is 37.3 µM.

`O=C(CSc1nc2ccccc2c(=O)n1-c1cc(F)c(F)c(F)c1)NC1CCc2ccccc21` (configuration not stated): the CC50 was 36 µM.

The term viability denotes a read-out of living cells in per cent, often relative to untreated cells. For orientation: CC50 means the concentration giving 50% cytotoxicity.

The values above are taken from PubChem BioAssay AID588374 (Southern Research Specialized Biocontainment Screening …, 2011).
